Test system: VEGF UTRs
Test: Luciferase reporter inhibition in B9 (VEGF UTRs) versus B12 (no VEGF UTRs) cell lines
Assay type: cell-based, human
Settings: B9 with VEGF 5'- and 3'-UTRs, B12 without
Procedure: A monocistronic reporter construct (pLuc/vegf5′+3′UTR) is under the transcriptional control of the CMV promoter and contains a VEGF IRES driving the luciferase reporter, which nucleic acid sequences are both upstream of a VEGF 3′-UTR. Stable cell lines are generated by transfecting 293 cells with the pLuc/vegf5′+3′UTR. A stable cell line is cultured under hygromycin B selection to create clonal cell lines consistent with protocols well known in the art. After two weeks of selection, clonal cell lines are screened for luciferase activity. The luciferase activity of several clonal cell lines (hereafter “clones”) are compared and normalized against total protein content. Clones are maintained under hygromycin B selection for more than three months with intermittent monitoring of luciferase activity. Clones are stable and maintain a high level of luciferase expression. Many clones, for example, about twenty, may be compared to each other with respect to luciferase activity. […] Particular parameters for clones are studied prior to selection for use in post-transcriptional, high-throughput screening (PTHTS). Relevant parameters for PTHTS include, but are not limited to, cell number, incubation time, DMSO concentration, and volume of substrate. The B9 cell line harbors the firefly luciferase reporter driven by the CMV promoter and flanked by the 5′- and 3′-UTRs of VEGF transcripts. […]

COc1ccc(C[C@H](N)C(=O)N[C@H]2[C@@H](O)[C@H](n3cnc4c(N(C)C)ncnc43)O[C@@H]2CO)cc1 [puromycin]
UTR specificity: luciferase inhibition in B9 versus B12 cell lines: does not change the difference of inhibition in luciferase expression in these two cell lines

Source: US8426194B2, “Methods and agents for screening for compounds capable of modulating VEGF expression” (PTC Therapeutics, Inc., priority 2003, dated 2013)
